{
  "source": "patent US20220288091A1",
  "about": "“Method for Improving Insulin Sensitivity” (priority 2019, published 2022)",
  "system": "hypothalamic-pituitary-adrenal axis",
  "test": "24-hour urinary free cortisol (UFC)",
  "type": "in vivo, human",
  "conditions": "50 mg every 6 hours for 9 days; for Urinary Free Cortisol (24-hour UFC): mean±SD, n=16, normal 3.5-45",
  "excerpt": "Urine cortisol and other surrogate biochemical markers of HPA activation: This includes all tests currently available or subsequently developed that may be used to evaluate the effects of GRA dose and schedule on the HPA axis. Normal 24-hour urine free cortisol (UFC) levels range from […] when measured in most tandem mass spectrometry assays. Values are higher when measured by immunoassays because of cross-reactivity with the antibodies used in those assays with other steroids that are structurally similar to cortisol. Measurement of UFC by tandem mass spectrometry is the preferred method to assess the effect of GRAs on the HPA axis for three reasons: 1. ease of collection, 2. specificity of the assay (it measures only cortisol) and 3. the well-established range of values seen in physiologic stress, or Pseudo-Cushing's syndrome, which is 1-3 times the upper limit of the normal reference range. However, other biochemical tests may be used as surrogate biochemical markers of the HPA axis, including, but not limited to measurement of serum or salivary cortisol at multiple time-points throughout a 24 hour period, including both the day and night, which is expressed as either the mean value or the area under the curve. Normal ranges for all cortisol assays and 24-hour assessments will vary depending on the assay technique, and reagents, and must be used based on locally-determined values, or values provided by the manufacturer of an assay kit. The results obtained from any of these assays are then used to determine whether the dosage of the one or more GR antagonists need to be adjusted upwards or downwards so as to maintain 24-hour serum or urinary free cortisol levels at no more than about two or three times the upper level of the normal range, respectively.\nInitially, 19 subjects underwent randomization. […]\nTo reduce potential variability associated with estrogen in premenopausal women, testing was performed in the early follicular phase (days 1-7 of menstrual cycle). Baseline height and weight were measured after an overnight fast. […]",
  "data": [
    {"molecule": "CC#C[C@]1(O)CC[C@H]2[C@@H]3CCC4=CC(=O)CCC4=C3[C@@H](c3ccc(N(C)C)cc3)C[C@@]21C", "note": "[Mifepristone, 11beta-[p-(dimethylamino)phenyl]-17alpha-(1-propynl)estra-4,9-dien-17beta-ol-3-one]", "values": [
      {"measurement": "Urinary Free Cortisol (24-hour UFC)", "result": "74.1 ± 75.3", "unit": "μg/24 hr"},
      {"measurement": "Urinary Free Cortisol (24-hour UFC)", "setting": "listed as mifepristone", "result": "74.1±75.3", "unit": "μg/24 hr"},
      {"measurement": "Post-treatment mean UFC in the 8 subjects above the normal limit", "setting": "subgroup of 8 subjects", "result": "120.4±83.9", "unit": "μg/24 hr"}
    ]}
  ]
}
